According to patent publication US4801616A, “Diphenylmethanone compounds and anti-inflammatory use thereof” (Eli Lilly and Company, priority 1986, dated 1989):

Legend:
[1] = system: Collagen-Induced Arthritis; assay: Collagen-Induced Arthritis Assay, hindpaw volume; assay type: in vivo, rat (inbred Lewis male); conditions: Rattus norvegicus, po, oral gavage, 5 days per week, 28 or 30 days, rats
Description: Collagen-Induced Arthritis Assay
Type II collagen was isolated from bovine articular cartilage by the method of Strawich and Nimni Biochemistry, 10, 3905 (1971)]. The collagen was dissolved in 0.1 M acetic acid and stored at -20° C. Type II collagen solution was diluted to 2 mg/ml concentration and emulsified thoroughly with an equal volume of incomplete Freund's adjuvant (ICFA). The emulsion containing approximately 0.5 mg of collagen was injected intradermally on day 0 to groups of 6 inbred Lewis male rats (Charles River Breeders; 170-200 g) at various sites in the dorsal area. The hindpaw volumes of each rat were measured and recorded three times a week throughout the test period to assess the inflammatory reaction. The test group animals received compounds under test as suspensions in carboxymethylcellulose vehicle, by oral gavage, 5 days per week (Monday-Friday), beginning on day 1. Control animals received vehicle without a test compound. At the end of the test (day 28 or 30), the blood of these animals was drawn by cardiac puncture and the serum anti-type II collagen antibody levels were estimated by passive hemagglutination technique, using glutaraldehyde treated sheep red cells, to which type II collagen is conjugated [Avramaes et al., Immunochemistry, 6, 67 (1969); Andriopoulos et al., Arth. Rheum. 19, 613 (1976)]. The cellular response or delayed-type hypersensitivity response to type II collagen was measured by the radiometric ear index assay [Kostiala, Immunology, 33, 561 (1977)]. In certain experiments, the bone damage occurring because of immunization with type II collagen and the effects of drugs were determined from the radiographs of the hindpaws of two or three representative animals from each group. Injections of ICFA without collagen II were employed in some rats as a negative control; these rate received only carbomethoxycellulose vehicle during the test.
The % inhibition was calculated according to the following formula: [formula] where Vt is the hindpaw volume of a compound-treated animal (test group), Vc is the hindpaw volume of a non-compound-treated animal (carbomethoxycellulose vehicle only--the control group), and Vv is the hindpaw volume of a vehicle (carbomethoxycellulose) treated animal which received ICFA with no collagen II (negative control group).

[2] = target: T1, 5-lipoxygenase (Cavia porcellus, UniProt A0A286X958); assay: 5-Lipoxygenase (5-LPO) Assay, inhibition of 5-HETE formation in PMNL sonicate supernatant; assay type: biochemical, guinea pig; conditions: for IC50: guinea pig PMNL sonicate supernatant, 37° C., 5 μM 14C-arachidonic acid
T1 construct: incubating 0.2 ml of the supernatant obtained from the PMNL sonicate with the test compound; from tissue; host or cells: casein-elicited guinea pig peritoneal polymorphonuclear leukocytes (PMNL, more than 95 percent of the cells), sonicated, 30,000 x g supernatant
T1 sequence (A0A286X958 1-674): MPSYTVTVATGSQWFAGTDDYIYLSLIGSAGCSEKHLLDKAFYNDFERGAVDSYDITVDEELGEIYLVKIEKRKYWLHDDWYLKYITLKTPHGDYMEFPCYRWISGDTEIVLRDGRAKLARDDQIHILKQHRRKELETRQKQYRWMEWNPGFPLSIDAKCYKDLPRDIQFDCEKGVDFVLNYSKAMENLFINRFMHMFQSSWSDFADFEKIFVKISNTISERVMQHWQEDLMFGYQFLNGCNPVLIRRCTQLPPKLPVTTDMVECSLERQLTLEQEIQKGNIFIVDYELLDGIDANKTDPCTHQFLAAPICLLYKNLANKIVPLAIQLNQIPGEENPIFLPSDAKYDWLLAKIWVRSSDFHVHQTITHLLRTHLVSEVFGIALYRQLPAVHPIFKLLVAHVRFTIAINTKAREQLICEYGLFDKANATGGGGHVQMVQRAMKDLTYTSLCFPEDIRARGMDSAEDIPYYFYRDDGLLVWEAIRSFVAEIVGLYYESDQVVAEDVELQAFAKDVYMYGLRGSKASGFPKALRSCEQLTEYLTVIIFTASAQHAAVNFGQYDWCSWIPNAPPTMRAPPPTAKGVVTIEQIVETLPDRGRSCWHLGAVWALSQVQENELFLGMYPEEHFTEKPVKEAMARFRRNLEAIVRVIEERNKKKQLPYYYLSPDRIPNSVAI
Description: 5-Lipoxygenase (5-LPO) Assay
Ten milliliters of a 2% casein solution were injected intraperitoneally into guinea pigs weighing 250-300 gm. After 16-18 hours, the guinea pigs were killed by suffocation in a carbon dioxide chamber. The peritoneal cavity was infused with 70 ml of saline and 40-50 ml of the fluid were recovered from the cavity. After centrifugation, cell pellets were washed twice in Hank's balanced salt solution (HBSS) without calcium ion.
The cells were then suspended in 5 ml of sodium phosphate buffer, pH 7.1 containing 1 mM EDTA, and 0.1% gelatin. About 20-30×10^7 cells were obtained from one guinea pig.
The PMNL suspension was disrupted by five 1/2 second pulse sonications at the setting of 3 in a Branson Sonifier, Model 350, equipped with a microtip. The sonicates were combined and centrifuged at 30,000× g for 10 minutes. The supernatant was kept frozen at -70° C. until use.
Enzyme activity was determined by assaying for 5-HETE formation by first incubating 0.2 ml of the supernatant obtained from the PMNL sonicate with the test compound, 1 mM CaCl2, 2 mM ATP, and 1 mM GSH for 5 minutes at 37° C. The mixture is treated with 5 μM ^14 C-arachidonicacid and incubated at 37° C. an additional 10 minutes. The enzyme reaction was then stopped by the addition of 10 μl of 1M citric acid and 10μl of an alcohol solution containing 20 mg/ml each of indomethacin and butylated hydroxyanisole (BHA). The reaction mixture was spotted (50 μl on a silica gel plate (Baker TLC plate S1250-PA-19C) and subjected to TLC in a solvent system of ethyl acetate/2,2,4-trimethylpentane/glacial acetic acid/water (90:50:20:100).
The radioactivity of the arachidonic acid and its metabolites (5-HETE and LTB4) was visualized from a developed x-ray film which had been exposed to the TLC plate 1-2 days. The amount of 5-HETE formed was quantitated by scraping the silica gel area corresponding to the spot on the x-ray film, and the radioactivity determined in a Isocap/300 liquid scintillation counter (Searle Analytic, Inc.).
The percent inhibition of the formation of 5-HETE was determined for each concentration of test compound tested as compared to a control experiment wherein no test compound was added. The concentration and percent inhibition values were plotted on semi log paper and the concentration in which formation of 5-HETE is inhibited by 50% (IC50) was determined by interpolation.

CCCc1c(O)ccc(C(=O)c2ccccc2O)c1O [Example 4, (2,4-Dihydroxy-3-propylphenyl)(2hydroxyphenyl)methanone]
inhibition in vivo at 50 mg/kg [1]: 47% | IC50 [2]: 5.88 µM

COc1ccccc1C(=O)c1ccc(OC)c(C)c1O [Example 9, (2-hydroxy-4-methoxy-3-methylphenyl)(2-methoxyphenyl)methanone]
inhibition in vivo at 50 mg/kg [1]: 0% | IC50 [2]: 3.67 µM

CCCc1c(OCCCCC#N)ccc(C(=O)c2ccccc2O)c1O [Example 11, 5-[3-Hydroxy-4-(2-hydroxybenzoyl)-2-propylphenoxy]pentanenitrile]
inhibition in vivo at 10 mg/kg [1]: 0% | inhibition in vivo at 25 mg/kg [1]: 31% | IC50 [2]: 2.83 µM

CCCc1c(OCCCCc2nnn[nH]2)ccc(C(=O)c2ccccc2OC)c1O [Example 23, (2-Hydroxy-3-propyl-4-[4-(1H-tetrazol-5-yl)butoxy]phenyl)(2-methoxyphenyl)methanone]
inhibition in vivo at 3 mg/kg [1]: 33% | inhibition in vivo at 10 mg/kg [1]: 67% | inhibition in vivo at 25 mg/kg [1]: 69% | IC50 [2]: 1.71 µM

CCCc1c(OCCCCCCc2nnn[nH]2)ccc(C(=O)c2ccccc2O)c1O [Example 25, (2-Hydroxyphenyl)[2-hydroxy-3-propyl-4-([6-(1H-tetrazol-5-yl)hexyl]oxy)phenyl]methanone]
inhibition in vivo at 25 mg/kg [1]: 39% | IC50 [2]: 11.8 µM

CCCc1c(OCCCCc2nnn[nH]2)ccc(C(=O)c2ccccc2O)c1O [Example 26, (2-Hydroxyphenyl)(2-hydroxy-3-propyl-4[4-(1H-tetrazol-5-yl)butoxy]phenyl)methanone]
inhibition in vivo at 3 mg/kg [1]: 65% | inhibition in vivo at 25 mg/kg [1]: 71% | inhibition in vivo at 30 mg/kg [1]: 62% | IC50 [2]: 1.26 µM

CCCc1c(OCCCCCCCCc2nnn[nH]2)ccc(C(=O)c2ccccc2O)c1O [Example 28, (2-Hydroxyphenyl)[2-hydroxy-3-propyl-4-([8-(1H-tetrazol-5-yl)octyl]oxy)phenyl]methanone]
inhibition in vivo at 3 mg/kg [1]: 65% | inhibition in vivo at 10 mg/kg [1]: 48% | inhibition in vivo at 30 mg/kg [1]: 95% | IC50 [2]: 1.33 µM

CCCc1c(OCCCCC(=O)O)ccc(C(=O)c2ccccc2O)c1O [Example 30, 5-[3-Hydroxy-4-(2-hydroxybenzoyl)-2-propylphenoxy]pentanoic acid]
inhibition in vivo at 50 mg/kg [1]: 24% | inhibition at 10 µg/mL ([2]; percent inhibition at 10 μg/ml): 37%
